# Molecular target: recombinant Human Phosphodiesterase B2 (PDE4B2) (Homo sapiens, UniProt Q07343)
# Assay: Human Phosphodiesterase B2 Alpha Screen Assay
# Assay type: biochemical
# Conditions: recombinant human PDE4B2, cAMP substrate, 60 min at room temperature
# Experimental: Human Phosphodiesterase B2 Alpha Screen Assay
# The assay uses recombinant Human Phosphodiesterase B2 (PDE4B2) produced in house (PrAZL0133), stored at −20° C. The substrate uses cAMP, part of the Alpha Screen cAMP kit (Perkin Elmer, Cat #6760625M), stored at 4° C. The Alpha Screen kit also includes biotinylated cAMP, acceptor and donor beads.
# The assay additions were as follows: Test compounds and controls were added to white 384-well flat-bottom plates (Greiner, Cat #781075), 0.2 μl in 100% DMSO, followed by 10 μl PDE4B2 in reaction buffer. The reaction buffer constitution was: 50 mM Tris (pH 7.5), 8.3 mM MgCl2, 1.7 mM EGTA and 0.01% (w/v) Brij®35. The enzyme and the compounds were incubated at room temperature for 15 minutes. Then 10 μl cAMP in reaction buffer was added. The assay was stopped after 60 minutes incubation at room temperature by adding 10 μl acceptor beads in detection buffer with 40 mM EDTA. The detection buffer constitution was: 5 mM Tris (pH 7.5), 0.1% (w/v) BSA and 0.1% (v/v) Tween 20. This addition followed by an addition of 10 μl donor beads in detection buffer, with biotinylated cAMP. The plates were then incubated, dark at room temperature, for 5 hours followed by measurement on a Fusion™-α analyser. IC50 values (presented in Table 1) were determined using Xlfit curve fitting using model 205.
# Chain of recombinant Human Phosphodiesterase B2 (PDE4B2) (Q07343 1-564 isoform Q07343-2): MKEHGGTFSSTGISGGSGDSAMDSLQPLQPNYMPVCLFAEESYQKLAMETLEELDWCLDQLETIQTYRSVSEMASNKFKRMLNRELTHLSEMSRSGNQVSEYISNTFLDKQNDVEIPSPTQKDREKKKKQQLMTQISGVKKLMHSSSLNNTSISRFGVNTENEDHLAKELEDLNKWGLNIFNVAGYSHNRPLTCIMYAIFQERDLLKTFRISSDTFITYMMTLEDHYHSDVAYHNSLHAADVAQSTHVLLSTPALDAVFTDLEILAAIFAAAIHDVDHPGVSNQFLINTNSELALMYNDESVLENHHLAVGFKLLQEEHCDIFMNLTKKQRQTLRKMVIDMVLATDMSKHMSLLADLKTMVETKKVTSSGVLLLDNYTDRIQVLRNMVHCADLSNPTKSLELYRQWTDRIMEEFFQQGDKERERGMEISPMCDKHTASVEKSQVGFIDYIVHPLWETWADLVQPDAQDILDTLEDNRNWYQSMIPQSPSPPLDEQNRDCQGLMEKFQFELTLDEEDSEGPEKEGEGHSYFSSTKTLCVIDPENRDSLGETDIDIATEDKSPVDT
row,Structure (SMILES),IC50
1,"CCc1nn(C2CCCC2)c2c1C(=O)NCC(c1ccc(OC)cc1)=N2 [Example 2, 1-cyclopentyl-3-ethyl-7-(4-methoxyphenyl)-5,6-dihydropyrazolo[3,4-e][1,4]diazepin-4(1H)-one]",0.98 nM
2,"CCc1nn(-c2cccc([N+](=O)[O-])c2)c2c1C(=O)NCC(c1ccccc1)=N2 [Example 4, 3-ethyl-1-(3-nitrophenyl)-7-phenyl-5,6-dihydropyrazolo[3,4-e][1,4]diazepin-4(1H)-one]",4.8 nM
3,"CCc1nn(-c2ccc(S(C)(=O)=O)cc2)c2c1C(=O)NCC(c1ccccc1)=N2 [Example 5, 3-ethyl-1-[4-(methylsulfonyl)phenyl]-7-phenyl-5,6-dihydropyrazolo[3,4-e][1,4]diazepin-4(1H)-one]",43 nM
4,"CCc1nn(C2CCCC2)c2c1C(=O)NCC(c1ccc(OC)c(OC)c1)=N2 [Example 7, 1-Cyclopentyl-7-(3,4-dimethoxyphenyl)-3-ethyl-5,6-dihydropyrazolo[3,4-e][1,4]diazepin-4(1H)-one]",1.47 nM
5,"CCc1nn(C2CCCC2)c2c1C(=O)NCC(c1ccc(Br)cc1)=N2 [Example 8, 7-(4-Bromophenyl)-1-cyclopentyl-3-ethyl-5,6-dihydropyrazolo[3,4-e][1,4]diazepin-4(1H)-one]",0.84 nM
6,"CCc1nn(C2CCCC2)c2c1C(=O)NCC(c1ccc(C)cc1)=N2 [Example 9, 1-Cyclopentyl-3-ethyl-7-(4-methylphenyl)-5,6-dihydropyrazolo[3,4-e][1,4]diazepin-4(1H)-one]",0.61 nM
7,"CCc1nn(C2CCCC2)c2c1C(=O)NCC(c1ccccc1OC)=N2 [Example 10, 1-Cyclopentyl-3-ethyl-7-(2-methoxyphenyl)-5,6-dihydropyrazolo[3,4-e][1,4]diazepin-4(1H)-one]",0.91 nM
8,"CCc1nn(C2CCCC2)c2c1C(=O)NCC(c1ccc(Cl)cc1)=N2 [Example 12, 7-(4-Chlorophenyl)-1-cyclopentyl-3-ethyl-5,6-dihydropyrazolo[3,4-e][1,4]diazepin-4(1H)-one]",0.57 nM
9,"CCc1nn(C2CCCC2)c2c1C(=O)NCC(c1ccc(F)c(F)c1)=N2 [Example 13, 7-(3,4-Difluorophenyl)-1-cyclopentyl-3-ethyl-5,6-dihydropyrazolo[3,4-e][1,4]diazepin-4(1H)-one]",0.73 nM
10,"CCc1nn(C2CCCC2)c2c1C(=O)NCC(c1cc(OC)ccc1OC)=N2 [Example 14, 1-Cyclopentyl-7-(2,5-dimethoxyphenyl)-3-ethyl-5,6-dihydropyrazolo[3,4-e][1,4]diazepin-4(1H)-one]",0.5 nM
11,"CCc1nn(C2CCCC2)c2c1C(=O)NCC(c1cccc(OC)c1)=N2 [Example 19, 1-Cyclopentyl-3-ethyl-7-(3-methoxyphenyl)-5,6-dihydropyrazolo[3,4-e][1,4]diazepin-4(1H)-one]",0.55 nM
12,"CCc1nn(C2CCCC2)c2c1C(=O)NCC(CCC(=O)OC)=N2 [Example 20, Methyl 3-(1-cyclopentyl-3-ethyl-4-oxo-1,4,5,6-tetrahydropyrazolo[3,4-e][1,4]diazepin-7-yl)propanoate]",28.7 nM
13,"CCc1nn(C2CCCC2)c2c1C(=O)NCC(c1ccc(F)cc1)=N2 [Example 21, 1-Cyclopentyl-3-ethyl-7-(4-fluorophenyl)-5,6-dihydropyrazolo[3,4-e][1,4]diazepin-4(1H)-one]",1.05 nM
14,"CCc1nn(C2CCCC2)c2c1C(=O)NCC(c1ccc(OC(F)(F)F)cc1)=N2 [Example 22, 1-Cyclopentyl-3-ethyl-7-[4-(trifluoromethoxy)phenyl]-5,6-dihydropyrazolo[3,4-e][1,4]diazepin-4(1H)-one]",4.16 nM
15,"CCc1nn(C2CCCC2)c2c1C(=O)NC(c1ccccc1)C(C)=N2 (stereo not drawn) [Example 25, 1-Cyclopentyl-3-ethyl-7-methyl-6-phenyl-5,6-dihydropyrazolo[3,4-e][1,4]diazepin-4(1H)-one]",385 nM
16,"CCc1nn(C2CCCC2)c2c1C(=O)N(C)CC(c1ccccc1)=N2 [Example 26, 1-Cyclopentyl-3-ethyl-5-methyl-7-phenyl-5,6-dihydropyrazolo[3,4-e][1,4]diazepin-4(1H)-one]",103 nM
17,"CCc1nn(C2CCCC2)c2c1C(=O)NCC(c1ccc(O)c(C(=O)O)c1)=N2 [Example 27, 5-(1-Cyclopentyl-3-ethyl-4-oxo-1,4,5,6-tetrahydropyrazolo[3,4-e][1,4]diazepin-7-yl)-2-hydroxybenzoic acid]",0.52 nM
18,"CCc1nn(C2CCCC2)c2c1C(=O)NCC(CCC(=O)O)=N2 [Example 28, 3-(1-Cyclopentyl-3-ethyl-4-oxo-1,4,5,6-tetrahydropyrazolo[3,4-e][1,4]diazepin-7-yl)propanoic acid]",65.3 nM
19,"CCc1nn(C2CCCC2)c2c1C(=O)NCC(CCC(=O)NCCN(C)C)=N2 [Example 29, 3-(1-Cyclopentyl-3-ethyl-4-oxo-1,4,5,6-tetrahydropyrazolo[3,4-e][1,4]diazepin-7-yl)-N-[2-(dimethylamino)ethyl]propanamide]",4480 nM
20,"CCc1nn(C2CC[S+]([O-])CC2)c2c1C(=O)NCC(c1ccccc1)=N2 (stereo not drawn) [Example 34, 3-Ethyl-1-(1-oxidotetrahydro-2H-thiopyran-4-yl)-7-phenyl-5,6-dihydropyrazolo[3,4-e][1,4]diazepin-4(1H)-one]",99.1 nM
21,"CCc1nn(C2CCS(=O)(=O)CC2)c2c1C(=O)NCC(c1ccccc1)=N2 [Example 35, 1-(1,1-Dioxidotetrahydro-2H-thiopyran-4-yl)-3-ethyl-7-phenyl-5,6-dihydropyrazolo[3,4-e][1,4]diazepin-4(1H)-one]",40.3 nM
22,"Cc1nn(C2CCCC2)c2c1C(=O)NCC(c1ccccc1)=N2 [Example 36, 1-Cyclopentyl-3-methyl-7-phenyl-5,6-dihydropyrazolo[3,4-e][1,4]diazepin-4(1H)-one]",9.49 nM

# The remaining compounds from weak to strong by IC50, led by results:
row,IC50,Structure (SMILES)
1,426 nM,"CSc1nn(-c2ccccc2)c2c1C(=O)NCC(c1ccccc1)=N2 [Example 31, 3-(Methylthio)-1,7-diphenyl-5,6-dihydropyrazolo[3,4-e][1,4]diazepin-4(1H)-one]"
2,158 nM,"CCc1nn(C2CCCC2)c2c1C(=O)NCC(c1ccccc1)N2 (stereo not drawn) [Example 30, 1-Cyclopentyl-3-ethyl-7-phenyl-5,6,7,8-tetrahydropyrazolo[3,4-e][1,4]diazepin-4(1H)-one]"
3,11 nM,"CCc1nn(-c2ccccc2)c2c1C(=O)NCC(c1ccccc1)=N2 [Example 6, 3-Ethyl-1,7-diphenyl-5,6-dihydropyrazolo[3,4-e][1,4]diazepin-4(1H)-one]"
4,6.1 nM,"CCc1nn(-c2ccc(F)cc2)c2c1C(=O)NCC(c1ccccc1)=N2 [Example 3, 3-ethyl-1-(4-fluorophenyl)-7-phenyl-5,6-dihydropyrazolo[3,4-e][1,4]diazepin-4(1H)-one]"
5,5.8 nM,"CCc1nn(C2CCS(=O)(=O)C2)c2c1C(=O)NCC(c1ccccc1)=N2 (stereo not drawn) [Example 32, 1-(1,1-Dioxidotetrahydrothien-3-yl)-3-ethyl-7-phenyl-5,6-dihydropyrazolo[3,4-e][1,4]diazepin-4(1H)-one]"
6,3.92 nM,"CCc1nn(C2CCCC2)c2c1C(=O)NCC(c1ccc(S(C)(=O)=O)cc1)=N2 [Example 24, 1-Cyclopentyl-3-ethyl-7-[4-(methylsulfonyl)phenyl]-5,6-dihydropyrazolo[3,4-e][1,4]diazepin-4(1H)-one]"
7,3.9 nM,"CCc1nn(C2CCSCC2)c2c1C(=O)NCC(c1ccccc1)=N2 [Example 33, 3-Ethyl-7-phenyl-1-tetrahydro-2H-thiopyran-4-yl-5,6-dihydropyrazolo[3,4-e][1,4]diazepin-4(1H)-one]"
8,2.16 nM,"CCc1nn(C2CCCC2)c2c1C(=O)NCC(c1ccco1)=N2 [Example 17, 1-Cyclopentyl-3-ethyl-7-(2-furyl)-5,6-dihydropyrazolo[3,4-e][1,4]diazepin-4(1H)-one]"
9,1.21 nM,"CCc1nn(C2CCCC2)c2c1C(=O)NCC(c1ccc(C#N)cc1)=N2 [Example 23, 4-(1-Cyclopentyl-3-ethyl-4-oxo-1,4,5,6-tetrahydropyrazolo[3,4-e][1,4]diazepin-7-yl)benzonitrile]"
10,0.9 nM,"CCc1nn(C2CCCC2)c2c1C(=O)NCC(c1ccc(OCc3ccccc3)cc1)=N2 [Example 15, 7-[4-(Benzyloxy)phenyl]-1-cyclopentyl-3-ethyl-5,6-dihydropyrazolo[3,4-e][1,4]diazepin-4(1H)-one]"
11,0.59 nM,"CCc1nn(C2CCCC2)c2c1C(=O)NCC(c1ccc(O)c(C(=O)OC)c1)=N2 [Example 11, Methyl 5-(1-cyclopentyl-3-ethyl-4-oxo-1,4,5,6-tetrahydropyrazolo[3,4-e][1,4]diazepin-7-yl)-2-hydroxybenzoate]"
12,0.53 nM,"CCc1nn(C2CCCC2)c2c1C(=O)NCC(C(C)(C)C)=N2 [Example 18, 7-tert-Butyl-1-cyclopentyl-3-ethyl-5,6-dihydropyrazolo[3,4-e][1,4]diazepin-4(1H)-one]"
13,0.43 nM,"CCc1nn(C2CCCC2)c2c1C(=O)NCC(c1ccc3c(c1)OCCCO3)=N2 [Example 16, 1-Cyclopentyl-7-(3,4-dihydro-2H-1,5-benzodioxepin-7-yl)-3-ethyl-5,6-dihydropyrazolo[3,4-e][1,4]diazepin-4(1H)-one]"
14,0.33 nM,"CCc1nn(C2CCCC2)c2c1C(=O)NCC(c1ccccc1)=N2 [Example 1, 1-Cyclopentyl-3-ethyl-7-phenyl-5,6-dihydropyrazolo[3,4-e][1,4]diazepin-4(1H)-one]"

# Reference: US20090054413A1, “Novel 5,6-Dihydropyrazolo[3,4-E] [L,4]Diazepin-4 (IH) -One Derivatives for the Treatment of Asthma and Chronic Obstructive Pulmonary Disease” (AstraZeneca AB, priority 2005, published 2009)
